Data published in patent US20150031628A1, “METHODS AND FORMULATIONS FOR CONVERTING INTRAVENOUS AND INJECTABLE DRUGS INTO ORAL DOSAGE FORMS” (ZOMANEX, LLC, priority 2007, published 2015).

Key:
in vivo [1] = settings: female, beagle, dog, plasma, po, 20 mg
Experimental: (§1) To these ends, pharmacokinetic studies were performed in five naïve, female beagle dogs with each drug dosed in a formulation system using a crossover design, with a one week wash out period between doses. […] Following a 16-hour fast, the animals were fed a small amount (approximately ¼ can) of Hill/s Science Diet A/D and thirty minutes later each animal was orally dosed with one of the formulations of the appropriate test article. Blood samples were drawn 0.5, 1.0, 1.5, 3.0, 4.5, 8.0, and 24 hours after dosing.
Solid Preparation—Paclitaxel. Solid Paclitaxel (300 mg), soy sterols (300 mg) and lysolecithin (900 mg) were added to a 30 mL glass tube and chloroform (3.0 ml) was added. After the solids were dissolved with gentle heating in a 60° C. water bath, the solvent was removed under a stream of nitrogen. The mass was then pumped on under vacuum to remove residual solvent. Addition of water (15 mL) softened the solid mass and the mixture was then sonicated in an ice bath for two minutes on 40% power, followed by two minutes sonication on 50% power and then two minutes sonication on 60% power. […]
Absorption Experiment With Solid Formulations. After dosing with each formulation, all the blood samples were processed and analyzed as described for the liquid formulations.

in vivo [2] = settings: female, beagle, dog, plasma, po, 20 mg; remark: listed apart in the source
Experimental: as §1
The liquid was then dosed to the animal with a syringe. Water was then added to the syringe and the washing was administered to the dog.
After dosing with each formulation, all the blood samples were collected in a sodium heparin anticoagulant tube, processed to plasma and frozen at −80° C. Plasma Paclitaxel concentration at each time point for each of the five dogs was determined by high throughput liquid chromatographic-tandem mass spectrometric quantification at Bioanalytical Systems (McMinnville, Oreg.). […] To quantitate the absorption changes, the area under the curve (AUC0→∞) was calculated for each formulation system and the results are shown in the Table below.

AUC(0-inf) (in vivo [1]): 28.9 ± 7.1 ng·h/mL | AUC(0-inf) (in vivo [2]): 28.9 ± 7.1 ng·h/mL
SMILES: CC(=O)O[C@H]1C(=O)[C@@]2(C)[C@H]([C@H](OC(=O)c3ccccc3)[C@]3(O)C[C@H](OC(=O)[C@H](O)[C@@H](NC(=O)c4ccccc4)c4ccccc4)C(C)=C1C3(C)C)[C@]1(OC(C)=O)CO[C@@H]1C[C@@H]2O [Unformulated Paclitaxel, Paclitaxel]
